Test results taken from patent US8648116B2, “Derivatives of N-(arylamino) sulfonamides including polymorphs as inhibitors of MEK as well as compositions, methods of use and methods for preparing the same” (Ardea Biosciences, Inc., priority 2005, dated 2014).
Where “and” joins values, the source holds several entries; their conditions need not be identical. Equal values may be shown once. Read-outs that look alike come from different tables or passages of the source.

Assays:
A375 melanoma cells = assay: Anchorage-dependent growth inhibition (CellTiterGlo/ATP, 48 hr); assay type: cell-based, human
[1] = tested on: Colo205 colon cancer cells; assay: as above
Method: Cells were maintained at 37° C., 5% CO2, and 100% humidity. Colo205 cells were maintained in RPMI supplemented with 10% fetal bovine serum, glutamine (2 mM), penicillin (100 U/ml), and streptomycin (100 μg/ml). For growth inhibition experiments, cells were plated in white 384-well microplates at 1000 cells/20 dwell. After 24 hr, 5 μl of a 5× drug stock solution was added. All drugs were initially prepared as 200× stocks in DMSO, such that final DMSO concentration was 0.5%. Cells were incubated for 48 hr at 37° C. and ATP levels were determined using CellTiterGlo (Promega, Madison, Wis.). […] Non-linear curve-fitting was performed using GraphPad Prism 4 (GraphPad Software, San Diego, Calif.).

human hepatocytes = assay: Primary hepatocyte toxicity (AK release, ATP, 48 hr); assay type: cell-based
Method: Plated human hepatocytes were obtained from CellzDirect and processed according to manufacturer's instructions.
(§1) After 48 hr, supernatant AK levels were determined using Toxilight, and cellular ATP levels were determined using CellTiterGlo. Full kill values were determined using 15 μM VRX-14686.

Colo205 cells = assay: Anchorage-independent growth inhibition (MTS, 7 days); assay type: cell-based, human
Method: Wells of an “ultra low binding” plate (Corning, Acton Mass.) were filled with 60 μl of a 0.15% agarose solution in complete RPMI. Then, 60 μl complete RPMI containing 9000 Colo205 cells in 0.15% agarose was added per well. After 24 hr, 60 μl of a 3× drug solution in agarose free complete RPMI was added. After 7 days, 36 μl 6×MTS reagent (CellTiter 96 Aqueous, Promega, Madison, Wis.) was added per well. After 2 hr at 37° C., absorbance at 490 nm was determined on the M5 plate reader (Molecular Devices, Sunnyvale, Calif.).
Viability was determined by MTS assay.

A375 cells = assay: as above; assay type: cell-based, human
[2] = tested on: human renal proximal tubule epithelial cells (RPTEC); assay: Renal cell toxicity (AK release, ATP, 48 hr); assay type: cell-based
Method: Cryopreserved human renal proximal tubule epithelial cells (RPTEC) were obtained from Cambrex and were processed according to manufacturer's instructions. Cells were expanded for 4 days and then plated in 96-well plates at 50,000 cells/well for drug exposure.
as §1

[3] = tested on: orthotopic HT-29 human colorectal adenocarcinoma; assay: Growth response of orthotopic HT-29 colon tumors in nude mice; assay type: in vivo, BALB/c nu/nu mice; details: for Caecum Weight / Tumour Weight: individual animals; for Average Caecum Weight / Average Tumour Weight: mice surviving to final day
Method: Female BALB/c nu/nu mice (University of Adelaide, Waite Campus, SA, Australia), aged 7-12 weeks, with a body weight range: of 16.58-25.39 g (mean 21.52 g) were used for the study. The mice were divided into 6 Study groups (4 treatment groups and 2 control groups) as follows: • Number of Mice per Group: 10 in Groups 1 to 5 inclusive • 9 in ‘Take-Rate’ Control Group (Group 6)
HT-29 human colorectal adenocarcinoma cells (Passage 4 from working stock VP-Stock 325) were cultured in RPMI1640 cell culture medium, which was supplemented with 10% FBS and penicillin-streptomycin (501 U/mL final concentration). The cells were harvested by trypsinisation, washed twice in HBSS and counted. The cells were then resuspended in HESS and adjusted to a final volume containing 2×10^8 cells/mL. Prior to inoculation, the incision site was liberally swabbed with alcohol and an incision made through the abdominal wall to expose the caecum wall. The needle was introduced through the surface of the caecum wall where 5 μL of cells (1×10^6 cells) were discharged.
A stock solution was prepared weekly and stored at 4° C. Dosing solutions were prepared on each day of administration.
Caecum and tumor wet weight were measured when each were excised post-mortem on the termination day of the study. At the termination of the study, the caecum was excised from all mice in each study group and weighed with the tumors intact. The tumors were then excised from the caecum and weighed.
A two-sample t-test was used to determine the significance in body weight change within a treatment group between Day 0 and the termination day of the study. […] In these groups, a two-sample t-test was used to determine the significance in body weight change within a treatment group between Day 0 and the final treatment day of the study, and between the last treatment day and the termination day of the study.
A One-Way Analysis of Variance (ANOVA) (All Pairwise Multiple Comparison Procedure and Multiple Comparison versus Control Group) was performed on the caecum weight and tumor weight data at the end of the study.

COc1cc(F)c(F)c(Nc2ccc(I)cc2F)c1NS(=O)(=O)C1(C[C@H](O)CO)CC1
GI50 (A375 melanoma cells; A375, 48 hr, ATP content, mean of at least three experiments, read-out: Mean GI50): 71 nM | GI50 (A375 melanoma cells; A375, separate study, 48 hr, ATP content, read-out: GI50): 56 nM | ATP, Cell viability, % Control (A375 melanoma cells; A375 cells, 1 uM, 48 hr): 27% | GI50 ([1]; Colo205, separate study, 48 hr, ATP content): 27 nM | GI50 ([1]; read-out: Mean GI50, Colo205, 48 hr, ATP content, mean of at least three experiments): 89 nM | survival (human hepatocytes; freshly plated primary human hepatocytes, 30 μM, 48 hr): 81% | cytotoxicity (human hepatocytes; primary normal human hepatocytes): little cytotoxicity | GI50 (Colo205 cells; Colo205, anchorage independent, read-out: Mean GI50): 40 nM | GI50 (Colo205 cells; human colorectal carcinoma Colo205 cells, read-out: GI50, anchorage independent growth (FIG. 12A)): 11 nM | GI50 (A375 cells; A375, anchorage independent, read-out: Mean GI50): 84 nM | GI50 (A375 cells; A375 cells, read-out: GI50, anchorage independent growth (FIG. 12B)): 22 nM | ATP depletion and cell lysis ([2]; RPTEC cells, 48 hr, cell lysis at 30 W (so in the source)): dose dependent ATP depletion and evident cell lysis | cytotoxicity ([2]; human renal proximal tubule epithelial cells): little cytotoxicity | HT-29 tumor and caecum weight, trend ([3]; 10 mg/kg p.o.): reduction | average caecum and tumor weights vs Vehicle Control ([3]; 2, 10 and 50 mg/kg p.o.): no significant difference

COc1cc(F)c(F)c(Nc2ccc(I)cc2F)c1NS(=O)(=O)C1(C[C@H](O)CO)CC1 [Compound A]
GI50 (A375 melanoma cells; Homo sapiens, A-375, A375 Melanoma, BRAF V600E, 48 hr, CellTiterGlo, read-out: Anchorage-Dependent GI50 (nM ± sd)): 67 ± 12 nM | GI50 ([1]; Homo sapiens, COLO 205, 48 h, read-out: Anchorage-Dependent GI50 (nM ± sd)): 74 ± 45 nM | AK release (% Cell Survival) Hepatocytes Human (human hepatocytes; Compound A 1.1 (μM), 48 hr): 92% | ATP (% Cell Survival) Hepatocytes Human (human hepatocytes; Compound A 1.1 (μM), 48 hr): 108% | AK release (% Cell Survival) Hepatocytes Human (human hepatocytes; Compound A 3.3 (μM), 48 hr): 102% | ATP (% Cell Survival) Hepatocytes Human (human hepatocytes; Compound A 3.3 (μM), 48 hr): 104% | AK release (% Cell Survival) Hepatocytes Human (human hepatocytes; Compound A 10.0 (μM), 48 hr): 112% | ATP (% Cell Survival) Hepatocytes Human (human hepatocytes; Compound A 10.0 (μM), 48 hr): 107% | AK release (% Cell Survival) Hepatocytes Human (human hepatocytes; Compound A 30.0 (μM), 48 hr): 109% | ATP (% Cell Survival) Hepatocytes Human (human hepatocytes; Compound A 30.0 (μM), 48 hr): 81% | GI50 (Colo205 cells; Homo sapiens, COLO 205, 168 h, Colo205 Colon, BRAF V600E, 0.15% agarose, read-out: Anchorage-Independent GI50 (nM ± sd)): 33 ± 16 nM | GI50 (A375 cells; Homo sapiens, A-375, 168 h, A375 Melanoma, BRAF V600E, 0.15% agarose, read-out: Anchorage-Independent GI50 (nM ± sd)): 68 ± 34 nM | AK release (% Cell Survival) RPTEC Human ([2]; Compound A 1.1 (μM), 48 hr): 96% | ATP (% Cell Survival) RPTEC Human ([2]; Compound A 1.1 (μM), 48 hr): 94% | AK release (% Cell Survival) RPTEC Human ([2]; Compound A 3.3 (μM), 48 hr): 95% | ATP (% Cell Survival) RPTEC Human ([2]; Compound A 3.3 (μM), 48 hr): 91% | AK release (% Cell Survival) RPTEC Human ([2]; Compound A 10.0 (μM), 48 hr): 99% | ATP (% Cell Survival) RPTEC Human ([2]; Compound A 10.0 (μM), 48 hr): 85% | AK release (% Cell Survival) RPTEC Human ([2]; Compound A 30.0 (μM), 48 hr): 41% | ATP (% Cell Survival) RPTEC Human ([2]; Compound A 30.0 (μM), 48 hr): 34% | Survival Number (No. Alive/Total) ([3]; Compound A 2 mg/kg p.o. once daily Day 0 to 9): 4/10 | Caecum Weight ([3]; Compound A 2 mg/kg, 2 mg/kg): 0.347 g and 0.170 g and 0.150 g and 0.205 g and 0.377 g and 0.233 g and 0.251 g and 0.322 g | Tumour Weight ([3]; Compound A 2 mg/kg, 2 mg/kg): 0.001 g (3×) and 0.000 g and 0.005 g (2×) and 0.122 g and 0.003 g | Average Caecum Weight ([3]; Compound A 2 mg/kg): 0.296 g | Average Tumour Weight ([3]; Compound A 2 mg/kg): 0.033 g | Caecum Weight ([3]; Compound A 10 mg/kg, 10 mg/kg): 0.287 g and 0.198 g and 0.258 g and 0.111 g and 0.263 g and 0.237 g and 0.234 g and 0.289 g and 0.320 g and 0.251 g | Tumour Weight ([3]; Compound A 10 mg/kg, 10 mg/kg): 0.000 g (3×) and 0.257 g and 0.008 g and 0.422 g and 0.001 g and 0.014 g and 0.004 g and 0.100 g | Average Caecum Weight ([3]; Compound A 10 mg/kg): 0.244 g | Average Tumour Weight ([3]; Compound A 10 mg/kg): 0.078 g | Caecum Weight ([3]; Compound A 50 mg/kg, 50 mg/kg): 0.230 g and 0.254 g and 0.238 g and 0.201 g and 0.337 g and 0.169 g and 0.328 g and 0.217 g and 0.312 g and 0.463 g | Tumour Weight ([3]; Compound A 50 mg/kg, 50 mg/kg): 0.002 g (2×) and 0.000 g and 0.004 g and 0.166 g and 0.655 g and 0.001 g (3×) and 0.026 g | Average Caecum Weight ([3]; Compound A 50 mg/kg): 0.290 g | Average Tumour Weight ([3]; Compound A 50 mg/kg): 0.122 g
